Key:
Type in all cases: cell-based, human
[1] = tested on: TM4SF5-expressing cells (SNU449T7); assay: Western blotting for signaling factors whose phosphorylation increases in a TM4SF5-expression dependent manner; settings: for phosphorylation of FAK, STAT3, c-Src, S6K1, Akt, and p27: given concentrations; for phosphorylation of FAK, c-Src, STAT3, p27, S6K1, AKT, and STAT5: 5 µM, 24 hours (FIG. 9a-b)
Experimental: (§1) Cell extracts were obtained from cells grown to a density of 70-80% without any treatment, or from cells treated with vehicle DMSO or drugs at the given concentrations for 24 hours. For the extract of hepatocytes or liver cancer cells, a lysis buffer (150 mM NaCl, 1% NP-40, 50 mM Tris-HCl, 0.25% sodium deoxycholate, pH 7.4) including a protease inhibitor cocktail (GenDEPOT) was used. In addition, after washing animal liver tissue twice with PBS, SDS, Na3VO4, and protease inhibitor cocktails (GenDEPOT) were added to a lysis buffer [50 mM Tris-HCl, pH 7.4, 1% NP40, 0.25% sodium deoxycholate, 150 mM NaCl, 1 mM EDTA (based on 500 ml)], followed by treatment at 4°C for 15 minutes. After centrifugation at 13,000 rpm at 4°C for 30 minutes, only the supernatant was transferred to a new microcentrifuge tube. After quantification using BCA reagent (Thermo Scientific), a 4 × sample buffer [100% glycerol 4 ml, Tris-HCl, pH 6.8, 2.4 ml, SDS 0.8 g, Bromophenol blue 4 mg, betamercaptoethanol 0.4 ml, H2O 3.1 ml (based on 10 ml)] was added, followed by boiling at 100°C for 5 minutes. After performing SDS-PAGE electrophoresis with the above samples and transferring them to Nitrocellulose Membranes Protran™ nitrocellulose membranes (Whatman), pre-treatment was performed with 5% skim milk for 1 hour. After pre-treatment, primary antibodies of p-FAK(Y861) (SC-16663), p-FAK(Y577) (SC-16665), c-Src (SC-8056), STAT3 (SC-8019), p-AKT 1/2/3(S473) (SC-7985), STATS (SC-835), Laminin γ2 (SC-393225), COL1A1 (SC-28657), CCL5(RANTES) (SC-514019) CCL20(MIP-3α) (SC-517441), SIRT1 (SC-74465), ChREBP (SC-515922), SREBP1 (SC-366513), DGAT1 (SC-271934), DGAT2 (SC-293211), MICA/B (SC-137242), SLAMF7 (SC-390840), α-tublin (SC-5286), β-actin (SC-47778), FUCA (SC-365496) (the above from Santa Cruz Biotech, USA), p-FAK(Y397) (cat # 611723), FAK (cat # 610088), p27 (cat # 610242) (the above from BD Transduction, USA), p-FAK(Y925) (#3284) p-c-Src(Y416) (#2101), p-STAT3(Y705) (#9145), p70S6K1 (#9202), p-p70S6K1(T389) (#9205), p-STAT5(Y694) (#9314), ACC (#3676), FASN (#3189), CPT1A (#12252), p-ACC(S79) (#11818), HA (#3724), PD-L1 (#13684), PD-1 (#86163), p-ERK1/2(T202/Y204) (#9101s), ERK1/2 (#9102s) (the above from Cell Signaling Tech., USA), pS10p27(S10) (ab62364), human SLAMF6 (ab224201), TIGIT (ab233404), CD34 (ab81289) (the above from Abcam, UK), mouse SLAMF6 (PA5-87823), NKG2D (PA5-102038) (the above from Thermofisher, USA), α-SMA (Sigma Aldrich, A5228), CCL2 (Invitrogen, MA5-17040), and CD155(PVR) (Biolegend, 337601), HA (Biolegend, USA), Strep-HRP(horse-radish peroxidase), StrepMAB-HRP (IBA, USA), AFP (FineTest, FNab00203) were reacted at 4°C for 15 hours. The next day, secondary antibodies were reacted, and development was performed on X-ray film using ECL (Pierce, USA). Anti-TM4SF5C-ter (epitope region of RKKQDTPH^197) and anti-TM4SF5EC2 (CLMNGEWGYHFEDTAGA^130) were custom-made at a professional antibody production company (Pro-Sci, Poway, CA, USA).
Cell extracts were obtained before and after treating TM4SF5-non-expressing cells (SNU449Cp) and TM4SF5-expressing cells (SNU449T7) with ST-1-024 or ST-1-025 drugs at the given concentrations for 24 hours, and Western blotting was performed for signaling factors whose phosphorylation and activity increase in a TM4SF5-expression dependent manner.
(a) Cell extracts were obtained after treating TM4SF5-non-expressing cells (SNU449Cp) and TM4SF5-expressing cells (SNU449T7) with vehicle (DMSO), TSAHC, or isoxazole compounds ST-2-001, ST-2-002, ST-2-003, ST-2-004, ST-2-005, ST-2-006, ST-2-007, ST-2-008, ST-2-009, ST-2-010, or ST-2-011 at a dose of 5 µM (for 24 hours). Using these, Western blotting was performed for signaling factors whose phosphorylation and activity increase in a TM4SF5-expression dependent manner. […]

[2] = tested on: TM4SF5-expressing cells (SNU449T7); assay: 3D sphere growth/proliferation
Experimental: TM4SF5-non-expressing cells (SNU449Cp) and TM4SF5-expressing cells (SNU449T7) of the same number (200 cells/well or 1000 cells/well) were added per well into Costar Ultra-Low Attachment Multiple Well Plates (CORNING), and were then treated with vehicle (DMSO) or drugs at various concentrations and cultured in a cell incubator under conditions of 37°C and 5% CO2. After repeatedly treating with the same concentrations of drugs every few days at regular intervals as indicated from the date of cell culture, the proliferation of the cells (spheres) was observed and photographed using an optical microscope on the last day of observation.
The drugs treated were the positive control drug TSAHC or the ST-1-025 isoxazole compound at the given concentrations. From the time of starting culture (0 day), (FIG. 3a) in the case of 2D culture, the number of cells was measured after treating with the drug every 24 hours, or (FIG. 3b) in a 3D environment, the proliferation of cells (spheres) was observed and photographed with an optical microscope on the 5th and 7th days after a single drug treatment at the start of culture. […]

[3] = tested on: SNU761-TM4SF5; assay: Western blotting of SLAMF7 expression, TM4SF5-expressing SNU761 cells; settings: chloroquine 10 µM, 24 hours (FIG. 15d)
Experimental: as §1, with “Anti-TM4SF5C-ter (epitope region of RKKQDTPH^197) and anti-TM4SF5EC2 (CLMNGEWGYHFEDTAGA^130) were custom-made at a professional antibody production company (Pro-Sci, Poway, CA, USA).” left out
After 24 hours, vehicle DMSO, drug ST-1-025, or ST-5-002 was treated at the given concentrations. […] (f) After treating NK92-EV or NK92-TM4SF5 cells with DMSO or drugs ST-2-001 (1 nM), ST-3-005 (10 nM or 1 µM), ST-5-001, or ST-5-002 (100 nM or 1 µM) for 24 hours, the expression of SLAMF7 expressed on the cell surface was analyzed through immunostaining using flow cytometry. The expression level of SLAMF7 was confirmed by adding a SLAMF7 antibody to bind with SLAMF7 and then measuring the fluorescence linked to the SLAMF7 antibody using flow cytometry. […]

[4] = tested on: TM4SF5-non-expressing cells (SNU449Cp); assay: Western blotting for signaling factor phosphorylation in TM4SF5-non-expressing cells; settings: 5 µM, 24 hours (FIG. 9a-b, blue-lined boxes)
Experimental: as §1
(a) Cell extracts were obtained after treating TM4SF5-non-expressing cells (SNU449Cp) and TM4SF5-expressing cells (SNU449T7) with vehicle (DMSO), ST-2-001, or an ST-2-001-based derivative drug at a concentration of 5 µM for 24 hours. (b) Cell extracts were obtained after treating SNU449Cp and SNU449T7 with DMSO, ST-2-001, ST-3-001, ST-3-006, ST-3-007, ST-3-010, or ST-3-011 at a concentration of 5 µM for 24 hours. (c) Cell extracts were obtained after treating SNU449Cp and SNU449T7 with DMSO, ST-2-001, ST-3-006, or ST-3-011 at the given concentrations for 24 hours. (a-c) Using the cell extracts obtained after the drug treatment, Western blotting was performed for signaling factors whose phosphorylation and activity increase in a TM4SF5-expression dependent manner.

[5] = 0.5 or 2.5 µM, observed 6th or 10th day (FIG. 10a, b)

SMILES	phosphorylation of FAK, c-Src, STAT3, p27, S6K1, AKT, and STAT5 [1]	degree of three-dimensional cell proliferation [2, 5]	phosphorylation of some signaling factors [4]	other results
Cc1ccc(S(=O)(=O)Nc2ccc(-c3cc(-c4ccc(O)cc4)no3)cc2)cc1 [ST-4-005, N-(4-(3-(4-hydroxyphenyl)isoxazole-5-yl)phenyl)-4-methylbenzenesulfonamide]	–	–	–	phosphorylation of FAK, STAT3, c-Src, S6K1, Akt, and p27 ([1]; 24 hours (FIG. 12a)): inhibited in many cases including STAT3, S6K1, and FAK; phosphorylation of FAK, STAT3, c-Src, S6K1, Akt, and p27 ([1]; 24 hours (FIG. 12d)): inhibited; survival/proliferation of the spheres ([2]; given concentrations on the 0, 3, 6, and 9th days, observed 10th day (FIG. 12b-c)): inhibited
CCN(CC)CCCC(C)Nc1ccnc2cc(Cl)ccc12 (stereo not drawn) [CQ, chloroquine, reference compound]	–	–	–	reduction in SLAMF7 expression [3]: not clearly seen
CC(=O)Nc1ccc(-c2cc(-c3ccc(C(C)(C)C)cc3)on2)cc1 [ST-3-007, N-(4-(5-(4-(tert-butyl)phenyl)isoxazole-3-yl)phenyl)acetamide]	decreased	inhibited	increased	–
C=CC(=O)Nc1ccc(-c2cc(-c3ccc(OC)cc3)on2)cc1 [ST-3-010, N-(4-(5-(4-methoxyphenyl)isoxazole-3-yl)phenyl)acrylamide]	decreased	inhibited	increased	degree of three-dimensional cell proliferation ([2]; 0.1 or 1.0 µM, observed 10th day (FIG. 10c)): decreased; cell proliferation inhibitory effect ([2]; 0.5 or 2.5 µM (FIG. 10a, b), comparison among drugs): strong
